Results: the supplement of paper PMC10307832

Tests used:
Test in all cases: relative viability (nuclei count vs DMSO), 5 days (fraction); higher = more cells survive
TPCA-1 + Phenformin = compound: C1=CC(=CC=C1C2=CC(=C(S2)NC(=O)N)C(=O)N)F [TPCA-1] + N=C(N)NC(=N)NCCc1ccccc1 [Phenformin] (partner 250 µM)
Procedure, shortened: (§1)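 Nuclei were stained with Hoechst during a one-step fixation (final 0.05% Triton X-100, 1% formaldehyde, 1 ug/ml Hoechst) carried out 5 days after dosing, then counted on 4× images. The cells, lung cancer lines in 1536-well plates, had been dosed by pin tool the day after seeding with one drug alone or a fixed anchor-drug dose plus five library-drug doses (not always all listed) in √10 steps. Relative viability is the nuclei count in treated wells divided by that in vehicle wells, and each value is the median of duplicate plates.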

TPCA-1 + Crizotinib = compound: C1=CC(=CC=C1C2=CC(=C(S2)NC(=O)N)C(=O)N)F [TPCA-1] + C[C@@H](Oc1cc(-c2cnn(C3CCNCC3)c2)cnc1N)c1c(Cl)ccc(F)c1Cl [Crizotinib] (partner 1 µM)
Procedure, shortened: as §1

[1] = compound: C1/C(=C\C2=CC=CS2)/C(=O)/C(=C/C3=CC=CS3)/C1 + N=C(N)NC(=N)NCCc1ccccc1 [Phenformin] (partner 250 µM)
Procedure, shortened: as §1

[2] = compound: C[C@]12O[C@H](C[C@]1(O)CO)n1c3ccccc3c3c4c(c5c6ccccc6n2c5c31)CNC4=O [Lestaurtinib] + Cc1cc(Nc2cc(N3CCN(C)CC3)nc(Sc3ccc(NC(=O)C4CC4)cc3)n2)n[nH]1 [Tozasertib] (partner 0.1 µM)
Procedure, shortened: as §1

With LC-2-ad the relative viability (TPCA-1 + Phenformin; first compound 0.04 µM) was 0.679, the relative viability (TPCA-1 + Phenformin; first compound 0.1265 µM) was 0.523 and the relative viability (TPCA-1 + Phenformin; first compound 0.4 µM) was 0.607. It also gave a relative viability (TPCA-1 + Phenformin; first compound 1.265 µM) of 0.575, a relative viability (TPCA-1 + Phenformin; first compound 4 µM) of 0.319 and a relative viability (TPCA-1 + Crizotinib; first compound 0.04 µM) of 0.441. The relative viability (TPCA-1 + Crizotinib; first compound 0.1265 µM) was 0.427, the relative viability (TPCA-1 + Crizotinib; first compound 0.4 µM) was 0.464 and the relative viability (TPCA-1 + Crizotinib; first compound 1.265 µM) was 0.413. For the same cell line, the relative viability (TPCA-1 + Crizotinib; first compound 4 µM) was 0.263, the relative viability ([1]; first compound 0.2 µM) was 0.632 and the relative viability ([1]; first compound 0.6325 µM) was 0.584. It also gave a relative viability ([1]; first compound 2 µM) of 0.671, a relative viability ([1]; first compound 6.325 µM) of 0.555 and a relative viability ([1]; first compound 20 µM) of 0.605. For the same cell line, the relative viability ([2]; first compound 0.005 µM) was 0.441, the relative viability ([2]; first compound 0.01581 µM) was 0.498 and the relative viability ([2]; first compound 0.05 µM) was 0.442. The relative viability ([2]; first compound 0.1581 µM) was 0.393 and the relative viability ([2]; first compound 0.5 µM) was 0.289.
Work on PC-3 [JPC-3] yielded a relative viability (TPCA-1 + Phenformin; first compound 0.04 µM) of 0.461, a relative viability (TPCA-1 + Phenformin; first compound 0.1265 µM) of 0.461 and a relative viability (TPCA-1 + Phenformin; first compound 0.4 µM) of 0.484. For the same cell line, the relative viability (TPCA-1 + Phenformin; first compound 1.265 µM) was 0.486, the relative viability (TPCA-1 + Phenformin; first compound 4 µM) was 0.468 and the relative viability (TPCA-1 + Crizotinib; first compound 0.04 µM) was 0.982. The relative viability (TPCA-1 + Crizotinib; first compound 0.1265 µM) was 0.943, the relative viability (TPCA-1 + Crizotinib; first compound 0.4 µM) was 1.07 and the relative viability (TPCA-1 + Crizotinib; first compound 1.265 µM) was 0.962. It also gave a relative viability (TPCA-1 + Crizotinib; first compound 4 µM) of 0.819, a relative viability ([1]; first compound 0.2 µM) of 0.494 and a relative viability ([1]; first compound 0.6325 µM) of 0.495. It also gave a relative viability ([1]; first compound 2 µM) of 0.452, a relative viability ([1]; first compound 6.325 µM) of 0.423 and a relative viability ([1]; first compound 20 µM) of 0.458. It also gave a relative viability ([2]; first compound 0.005 µM) of 0.87, a relative viability ([2]; first compound 0.01581 µM) of 0.998 and a relative viability ([2]; first compound 0.05 µM) of 0.765. The relative viability ([2]; first compound 0.1581 µM) was 0.777 and the relative viability ([2]; first compound 0.5 µM) was 0.587.
EBC-1 gave a relative viability (TPCA-1 + Crizotinib; first compound 0.04 µM) of 0.206, a relative viability (TPCA-1 + Crizotinib; first compound 0.1265 µM) of 0.175 and a relative viability (TPCA-1 + Crizotinib; first compound 0.4 µM) of 0.201. For the same cell line, the relative viability (TPCA-1 + Crizotinib; first compound 1.265 µM) was 0.195 and the relative viability (TPCA-1 + Crizotinib; first compound 4 µM) was 0.222.
For HCC-15, the relative viability (TPCA-1 + Phenformin; first compound 0.04 µM) was 0.578, the relative viability (TPCA-1 + Phenformin; first compound 0.1265 µM) was 0.479 and the relative viability (TPCA-1 + Phenformin; first compound 0.4 µM) was 0.509. The relative viability (TPCA-1 + Phenformin; first compound 1.265 µM) was 0.435, the relative viability (TPCA-1 + Phenformin; first compound 4 µM) was 0.275 and the relative viability (TPCA-1 + Crizotinib; first compound 0.04 µM) was 0.833. It also gave a relative viability (TPCA-1 + Crizotinib; first compound 0.1265 µM) of 0.81, a relative viability (TPCA-1 + Crizotinib; first compound 0.4 µM) of 0.831 and a relative viability (TPCA-1 + Crizotinib; first compound 1.265 µM) of 0.798. For the same cell line, the relative viability (TPCA-1 + Crizotinib; first compound 4 µM) was 0.563, the relative viability ([1]; first compound 0.2 µM) was 0.516 and the relative viability ([1]; first compound 0.6325 µM) was 0.467. The relative viability ([1]; first compound 2 µM) was 0.545, the relative viability ([1]; first compound 6.325 µM) was 0.445 and the relative viability ([1]; first compound 20 µM) was 0.442. For the same cell line, the relative viability ([2]; first compound 0.005 µM) was 0.598, the relative viability ([2]; first compound 0.01581 µM) was 0.599 and the relative viability ([2]; first compound 0.05 µM) was 0.232. It also gave a relative viability ([2]; first compound 0.1581 µM) of 0.235 and a relative viability ([2]; first compound 0.5 µM) of 0.107.
In the case of NCI-H1563, the relative viability (TPCA-1 + Phenformin; first compound 0.04 µM) is reported as 0.712, the relative viability (TPCA-1 + Phenformin; first compound 0.1265 µM) is reported as 0.653 and the relative viability (TPCA-1 + Phenformin; first compound 0.4 µM) is reported as 0.712. For the same cell line, the relative viability (TPCA-1 + Phenformin; first compound 1.265 µM) was 0.603, the relative viability (TPCA-1 + Phenformin; first compound 4 µM) was 0.667 and the relative viability (TPCA-1 + Crizotinib; first compound 0.04 µM) was 0.945. The relative viability (TPCA-1 + Crizotinib; first compound 0.1265 µM) was 0.954, the relative viability (TPCA-1 + Crizotinib; first compound 0.4 µM) was 0.89 and the relative viability (TPCA-1 + Crizotinib; first compound 1.265 µM) was 0.953. The relative viability (TPCA-1 + Crizotinib; first compound 4 µM) was 0.811, the relative viability ([1]; first compound 0.2 µM) was 0.672 and the relative viability ([1]; first compound 0.6325 µM) was 0.66. The relative viability ([1]; first compound 2 µM) was 0.655, the relative viability ([1]; first compound 6.325 µM) was 0.614 and the relative viability ([1]; first compound 20 µM) was 0.593.
In the case of COR-L 105, the relative viability (TPCA-1 + Phenformin; first compound 0.04 µM) is reported as 0.471, the relative viability (TPCA-1 + Phenformin; first compound 0.1265 µM) is reported as 0.406 and the relative viability (TPCA-1 + Phenformin; first compound 0.4 µM) is reported as 0.448. It also gave a relative viability (TPCA-1 + Phenformin; first compound 1.265 µM) of 0.368, a relative viability (TPCA-1 + Phenformin; first compound 4 µM) of 0.323 and a relative viability (TPCA-1 + Crizotinib; first compound 0.04 µM) of 0.812. It also gave a relative viability (TPCA-1 + Crizotinib; first compound 0.1265 µM) of 1.14, a relative viability (TPCA-1 + Crizotinib; first compound 0.4 µM) of 0.751 and a relative viability (TPCA-1 + Crizotinib; first compound 1.265 µM) of 0.629. For the same cell line, the relative viability (TPCA-1 + Crizotinib; first compound 4 µM) was 0.347, the relative viability ([1]; first compound 0.2 µM) was 0.526 and the relative viability ([1]; first compound 0.6325 µM) was 0.491. For the same cell line, the relative viability ([1]; first compound 2 µM) was 0.499, the relative viability ([1]; first compound 20 µM) was 0.481 and the relative viability ([2]; first compound 0.005 µM) was 0.406. For the same cell line, the relative viability ([2]; first compound 0.01581 µM) was 0.355, the relative viability ([2]; first compound 0.05 µM) was 0.35 and the relative viability ([2]; first compound 0.1581 µM) was 0.31. It also gave a relative viability ([2]; first compound 0.5 µM) of 0.268.
In the case of NCI-H520, the relative viability (TPCA-1 + Phenformin; first compound 0.04 µM) is reported as 0.872, the relative viability (TPCA-1 + Phenformin; first compound 0.1265 µM) is reported as 0.473 and the relative viability (TPCA-1 + Phenformin; first compound 0.4 µM) is reported as 0.844. For the same cell line, the relative viability (TPCA-1 + Phenformin; first compound 1.265 µM) was 0.579, the relative viability (TPCA-1 + Phenformin; first compound 4 µM) was 0.177 and the relative viability (TPCA-1 + Crizotinib; first compound 0.04 µM) was 0.882. The relative viability (TPCA-1 + Crizotinib; first compound 0.1265 µM) was 0.737, the relative viability (TPCA-1 + Crizotinib; first compound 0.4 µM) was 0.795 and the relative viability (TPCA-1 + Crizotinib; first compound 1.265 µM) was 0.566. It also gave a relative viability (TPCA-1 + Crizotinib; first compound 4 µM) of 0.544, a relative viability ([1]; first compound 0.2 µM) of 0.744 and a relative viability ([1]; first compound 0.6325 µM) of 0.605. The relative viability ([1]; first compound 2 µM) was 0.766, the relative viability ([1]; first compound 6.325 µM) was 0.535 and the relative viability ([1]; first compound 20 µM) was 0.443. The relative viability ([2]; first compound 0.005 µM) was 0.458, the relative viability ([2]; first compound 0.01581 µM) was 0.468 and the relative viability ([2]; first compound 0.05 µM) was 0.428. The relative viability ([2]; first compound 0.1581 µM) was 0.388 and the relative viability ([2]; first compound 0.5 µM) was 0.254.
In the case of LU99A, the relative viability (TPCA-1 + Phenformin; first compound 0.04 µM) is reported as 0.989, the relative viability (TPCA-1 + Phenformin; first compound 0.1265 µM) is reported as 0.82 and the relative viability (TPCA-1 + Phenformin; first compound 0.4 µM) is reported as 0.835. For the same cell line, the relative viability (TPCA-1 + Phenformin; first compound 1.265 µM) was 0.646, the relative viability (TPCA-1 + Phenformin; first compound 4 µM) was 0.603 and the relative viability (TPCA-1 + Crizotinib; first compound 0.04 µM) was 0.613. The relative viability (TPCA-1 + Crizotinib; first compound 0.1265 µM) was 0.534, the relative viability (TPCA-1 + Crizotinib; first compound 0.4 µM) was 0.47 and the relative viability (TPCA-1 + Crizotinib; first compound 1.265 µM) was 0.506. It also gave a relative viability (TPCA-1 + Crizotinib; first compound 4 µM) of 0.249, a relative viability ([1]; first compound 0.2 µM) of 0.771 and a relative viability ([1]; first compound 0.6325 µM) of 0.819. It also gave a relative viability ([1]; first compound 2 µM) of 0.857, a relative viability ([1]; first compound 6.325 µM) of 0.819 and a relative viability ([1]; first compound 20 µM) of 0.801. It also gave a relative viability ([2]; first compound 0.005 µM) of 0.287, a relative viability ([2]; first compound 0.01581 µM) of 0.297 and a relative viability ([2]; first compound 0.05 µM) of 0.271. For the same cell line, the relative viability ([2]; first compound 0.1581 µM) was 0.218 and the relative viability ([2]; first compound 0.5 µM) was 0.226.
NCI-H1666 gave a relative viability (TPCA-1 + Phenformin; first compound 0.04 µM) of 0.547, a relative viability (TPCA-1 + Phenformin; first compound 0.1265 µM) of 0.569 and a relative viability (TPCA-1 + Phenformin; first compound 0.4 µM) of 0.533. It also gave a relative viability (TPCA-1 + Phenformin; first compound 1.265 µM) of 0.529, a relative viability (TPCA-1 + Phenformin; first compound 4 µM) of 0.581 and a relative viability (TPCA-1 + Crizotinib; first compound 0.04 µM) of 0.894. The relative viability (TPCA-1 + Crizotinib; first compound 0.1265 µM) was 0.971, the relative viability (TPCA-1 + Crizotinib; first compound 0.4 µM) was 0.977 and the relative viability (TPCA-1 + Crizotinib; first compound 1.265 µM) was 0.918. For the same cell line, the relative viability (TPCA-1 + Crizotinib; first compound 4 µM) was 0.993, the relative viability ([1]; first compound 0.2 µM) was 0.55 and the relative viability ([1]; first compound 0.6325 µM) was 0.596. It also gave a relative viability ([1]; first compound 2 µM) of 0.589, a relative viability ([1]; first compound 6.325 µM) of 0.522 and a relative viability ([1]; first compound 20 µM) of 0.584. The relative viability ([2]; first compound 0.005 µM) was 0.656, the relative viability ([2]; first compound 0.01581 µM) was 0.663 and the relative viability ([2]; first compound 0.05 µM) was 0.686. For the same cell line, the relative viability ([2]; first compound 0.1581 µM) was 0.531 and the relative viability ([2]; first compound 0.5 µM) was 0.373.
